Assay [1] deals with T1, PARP1 (Homo sapiens, UniProt P09874). Put plainly: PAR chain formation after γ-irradiation, HepG2 cells. The assay is classed as cell-based. Details: endogenous in cells. Particulars: HepG2, 15 min after irradiation. The procedure:
(§1) FIG. 14: (A) U2OS cells were pre-treated with different concentrations of olaparib prior to co-treatment with etoposide. Whole cell lysis was performed after 90 min and cleared lysates were used for WB with indicated antibodies. (B) U2OS cells were pre-treated with DMSO, olaparib or the ATM inhibitor Ku55933 and co-treated with etoposide. Cells were harvested after 45 min and subjected to SDS-PAGE/WB. Membranes were stained with the indicated antibodies. The experiment of (B) was performed simultaneously to the experiments of (A) and (E) to control functionality of olaparib in inhibiting PAR chain formation. (C) Densitometrical analyses of (A) and two further independent experiments done as shown in (A). (D) U2OS cells were pre-treated with the substances as indicated prior to irradiation. After 90 min mRNA was isolated, transcribed into cDNA and was used for expression analyses of the indicated genes using quantitative real-time PCR (qRT-PCR). (E) HepG2 cells were pre-treated with the PARP inhibitors olaparib, 3-AB and EB-47 prior to γ-irradiation. Cells were harvested after 15 and 90 min and subjected to SDS-PAGE/WB. Membranes were stained with the indicated antibodies. Error bars equal SEM.

In assay [2] the test system is genotoxic stress-activated NF-κB signaling. Nature of the assay: TAK1 and p65 S536 phosphorylation after γ-irradiation, WB, HepG2 cells. Particulars: HepG2, 90 min after irradiation, PARP inhibitors. Format: cell-based, human. The procedure: FIG. 6: (A) U2OS cells were pre-treated with DMSO or MW01 and irradiated. Stimulation of cell with IL-1β served as a positive control for IκBα and p65 phosphorylation. Cells were lysed at indicated time points and used for WB analyses. (B,C) Similar experimental setup as in (A). (D) Experiment as in (A-C), but with other time points analysed and performed with HepG2 cells. PARP1 and LDH serve as loading controls.
(§2) FIG. 9: HepG2 cells were pre-incubated with DMSO, MW01 (5 μM) or the ATM inhibitor Ku55933 (10 μM) and irradiated. After 60 min cells were harvested and processed. Immunochemical staining of Western blotting membranes was done using indicated antibodies.
as §1

In assay [3] the target is T2, PARP1 (Mus musculus, UniProt P11103).
T2 construct: endogenous in cells; host or cells: MEF (mouse embryonic fibroblasts)
Put plainly: PARP1 enzymatic activity, PAR chain formation after γ-irradiation, MEF cells. Format: cell-based. The source says:
FIG. 10: (A) MEF cells were pre-treated with the indicated substances, irradiated and cell lysates were used for poly(ADP)-ribose probing using a specific antibody. (B) Experiment performed as described for (A), but using U2OS cells.

Assay [4] concerns the target T2, PARP1. Conditions: MEF, after etoposide administration (Stilmann et al.; 2009); cited from earlier work.
Assay [5] relates to NF-κB DNA binding activity. Particulars: HEK293; data not shown, personal communication; cited from earlier work.
Assay [6] has as its target T1, PARP1. Particulars: HepG2, after γ-irradiation (Stilmann et al.; 2009); cited from earlier work.
The target in assay [7] is T3, ATM (Homo sapiens, UniProt Q13315).
T3 construct: endogenous in cells; host or cells: HepG2
Put plainly: Enzymatic activity of ATM in γ-irradiated HepG2 cells, WB of ATM and substrate phosphorylation. The assay is classed as cell-based. Particulars: HepG2, γ-irradiation, 60 min; MW01 5 μM, Ku55933 10 μM. As for the experimental part: as §2

In assay [8] the test system is NF-κB target genes NFKBIA, TNFAIP3, CXCL8. Put plainly: qRT-PCR of NF-κB target genes after irradiation, U2OS cells. Conditions: 90 min after irradiation. Format: cell-based, human. The procedure: as §1
To quantitate specific mRNA (messenger RNA) species in samples RNA was isolated, RNA concentration was measured and mRNA was transcribed into cDNA. The amount of mRNA transcripts of certain genes within a sample was quantified by employing gene specific primers and using a C-1000 Thermal cycler (Biorad). The expression of genes of interest was normalised against two or three reference genes (HRPT1, RPL_13a and B2M) using the CFX manager software. The fold induction of mRNA was calculated over untreated sample levels by the ΔΔ-Ct method.
(In general: Quantitative PCR measures a nucleic acid by following its amplification.)

Assay [9] has as its system genotoxic stress-induced phosphorylation of p65 at S536. Nature of the assay: Structure-activity-relationship: p-p65 S536/p65 densitometry after etoposide, U2OS cells. Format: cell-based, human. Conditions: 10 μM, 2 h prior to etoposide, normalised to DMSO/etoposide. As for the experimental part: FIG. 13: (A) U2OS cells were pre-treated with DMSO, MW01 or its derivatives MW01A1-MW01C5 at concentrations of 10 μM for 2 h prior to etoposide treatment. After incubation with etoposide cells were harvested, lysed and subjected to SDS-PAGE/WB. Phospho-[…] p65 signal intensities as well as p65 signal intensities were detected using a CCD camera and band intensities were used for densitometrical analyses. DMSO and etoposide treated control was set to 1. Four independent experiments were performed and statistical outliers were identified and eliminated using Grubb's test. […] (B) NFkB/293/GFP-luc cells were pre-treated with DMSO, MW01 or its derivatives MW01D01-MW01D18 at concentrations of 10 μM for 1.5 h prior to etoposide treatment. After incubation for 4.5 hours NF-κB-dependent luciferase expression was measured by detection of chemoluminescence. DMSO and etoposide treated control was set to 1. Twelve independent experiments were performed.
Different derivatives of MW01 were obtained (FIG. 12 A) and tested for their ability to inhibit genotoxic stress-induced phosphorylation of p65 at S536. Densitometry of western blot bands was used to quantify signal intensities of the p65 S536 phosphorylation and total p65 amount. The signal intensities of the p65 S536 phosphorylation were normalised to the signal intensities of total p65 and the quotients were normalised to DMSO/etoposide and compared with MW01/etoposide co-treated samples (FIG. 13). […] Compared to MW01, these compounds are derivatives in which the hydroxyl group was exchanged with a small substitute either fluoride, chloride or a methyl group, respectively. Furthermore, MW01C3 and MW01C4 differed in the substitution of the aromatic ring system V (FIG. 12 B) regarding the two methoxy groups that are missing.

Assay [10] deals with p65 S536 phosphorylation. Nature of the assay: p65 S536 phosphorylation after γ-IR or etoposide, SDS-PAGE/WB, U2OS cells. The assay is classed as cell-based, human. The procedure:
FIG. 3: (A) U2OS cells were pre-treated with increasing concentrations of MW01 in duplicates in a 384 well plate. Then, cells were treated with etoposide, fixed and subjected to IF of p65. Spatial measurement of p65 cytosolic and nuclear localisation was used for calculation of p65 translocation rates. (B) U2OS cells were pre-treated with DMSO, MW01 and irradiated with γ-IR. After 90 min cells were lysed and subjected to SDS-PAGE/WB and EMSA. (C) Cells were pre-treated with different concentrations of MW01 as indicated, treated with γ-IR (C) or etoposide (D) and subjected to WB or EMSA, respectively. LDH in (C) represents the loading control.
as §1, with “Cells were harvested after 15 and 90 min and subjected to SDS-PAGE/WB. Membranes were stained with the indicated antibodies. Error bars equal SEM.” left out
After transfer of proteins on PVDF membranes unspecific binding of antibodies was blocked by incubation of membranes in 5% skim milk powder in TBST buffer (or 3% BSA in TBST for phosphorylation-specific antibodies) for 1 h at RT. […] After three times of washing with TBST and once with PBS for 5 min, chemiluminescent photon emission was detected using a CCD camera system (Fusion Solo). […]

T2 sequence (P11103 whole entry): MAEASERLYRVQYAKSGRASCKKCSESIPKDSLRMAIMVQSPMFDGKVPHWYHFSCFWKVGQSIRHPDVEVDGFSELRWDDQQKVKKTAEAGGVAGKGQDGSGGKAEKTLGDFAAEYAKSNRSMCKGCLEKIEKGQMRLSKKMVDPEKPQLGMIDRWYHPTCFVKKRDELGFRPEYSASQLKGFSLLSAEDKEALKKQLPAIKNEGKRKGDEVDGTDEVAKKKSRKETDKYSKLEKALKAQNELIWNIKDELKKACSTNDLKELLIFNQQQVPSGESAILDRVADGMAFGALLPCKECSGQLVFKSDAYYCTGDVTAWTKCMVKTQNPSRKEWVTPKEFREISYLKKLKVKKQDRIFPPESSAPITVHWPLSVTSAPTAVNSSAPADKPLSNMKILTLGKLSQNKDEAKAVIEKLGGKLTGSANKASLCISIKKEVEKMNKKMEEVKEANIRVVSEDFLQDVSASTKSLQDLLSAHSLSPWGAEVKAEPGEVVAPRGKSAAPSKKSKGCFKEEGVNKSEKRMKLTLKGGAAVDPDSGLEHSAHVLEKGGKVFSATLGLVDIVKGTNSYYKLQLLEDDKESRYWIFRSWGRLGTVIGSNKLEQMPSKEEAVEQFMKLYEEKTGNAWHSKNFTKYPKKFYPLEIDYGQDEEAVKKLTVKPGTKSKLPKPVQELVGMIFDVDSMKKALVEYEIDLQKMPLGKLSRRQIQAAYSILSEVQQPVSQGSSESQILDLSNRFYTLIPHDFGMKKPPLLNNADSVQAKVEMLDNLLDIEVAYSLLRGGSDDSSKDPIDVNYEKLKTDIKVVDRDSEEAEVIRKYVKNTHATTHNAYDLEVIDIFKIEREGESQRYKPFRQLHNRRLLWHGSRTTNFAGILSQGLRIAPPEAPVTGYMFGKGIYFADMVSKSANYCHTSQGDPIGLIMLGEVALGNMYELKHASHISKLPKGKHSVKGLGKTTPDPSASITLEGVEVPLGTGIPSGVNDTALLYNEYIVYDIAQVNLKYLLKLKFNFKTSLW
T1 sequence (P09874 whole entry): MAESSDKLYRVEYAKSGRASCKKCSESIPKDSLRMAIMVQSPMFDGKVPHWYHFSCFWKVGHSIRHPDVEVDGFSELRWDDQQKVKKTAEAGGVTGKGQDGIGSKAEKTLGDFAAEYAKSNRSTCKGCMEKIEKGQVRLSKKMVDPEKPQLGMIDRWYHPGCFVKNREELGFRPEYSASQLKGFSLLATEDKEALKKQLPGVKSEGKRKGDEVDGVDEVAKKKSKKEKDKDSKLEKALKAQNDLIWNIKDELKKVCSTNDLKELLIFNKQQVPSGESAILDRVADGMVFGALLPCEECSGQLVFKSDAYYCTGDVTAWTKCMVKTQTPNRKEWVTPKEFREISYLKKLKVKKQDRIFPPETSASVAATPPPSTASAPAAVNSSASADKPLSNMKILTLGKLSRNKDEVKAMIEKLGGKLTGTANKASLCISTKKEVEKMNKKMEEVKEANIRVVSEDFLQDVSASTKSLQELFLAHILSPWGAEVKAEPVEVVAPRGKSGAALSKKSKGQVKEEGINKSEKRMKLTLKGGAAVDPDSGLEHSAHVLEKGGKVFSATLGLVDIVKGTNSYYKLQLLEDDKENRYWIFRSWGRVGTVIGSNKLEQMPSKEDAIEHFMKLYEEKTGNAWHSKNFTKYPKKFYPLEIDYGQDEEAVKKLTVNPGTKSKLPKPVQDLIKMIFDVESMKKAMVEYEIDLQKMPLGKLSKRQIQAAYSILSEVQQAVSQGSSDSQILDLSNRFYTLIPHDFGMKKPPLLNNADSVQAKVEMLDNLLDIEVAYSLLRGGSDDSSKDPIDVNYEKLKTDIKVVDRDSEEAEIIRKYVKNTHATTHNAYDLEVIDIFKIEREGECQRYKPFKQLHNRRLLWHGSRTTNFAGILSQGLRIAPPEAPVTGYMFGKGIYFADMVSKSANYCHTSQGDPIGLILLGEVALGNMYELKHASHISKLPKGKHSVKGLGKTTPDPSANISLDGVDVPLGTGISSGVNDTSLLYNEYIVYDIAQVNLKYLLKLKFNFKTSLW
T3 sequence (Q13315 whole entry): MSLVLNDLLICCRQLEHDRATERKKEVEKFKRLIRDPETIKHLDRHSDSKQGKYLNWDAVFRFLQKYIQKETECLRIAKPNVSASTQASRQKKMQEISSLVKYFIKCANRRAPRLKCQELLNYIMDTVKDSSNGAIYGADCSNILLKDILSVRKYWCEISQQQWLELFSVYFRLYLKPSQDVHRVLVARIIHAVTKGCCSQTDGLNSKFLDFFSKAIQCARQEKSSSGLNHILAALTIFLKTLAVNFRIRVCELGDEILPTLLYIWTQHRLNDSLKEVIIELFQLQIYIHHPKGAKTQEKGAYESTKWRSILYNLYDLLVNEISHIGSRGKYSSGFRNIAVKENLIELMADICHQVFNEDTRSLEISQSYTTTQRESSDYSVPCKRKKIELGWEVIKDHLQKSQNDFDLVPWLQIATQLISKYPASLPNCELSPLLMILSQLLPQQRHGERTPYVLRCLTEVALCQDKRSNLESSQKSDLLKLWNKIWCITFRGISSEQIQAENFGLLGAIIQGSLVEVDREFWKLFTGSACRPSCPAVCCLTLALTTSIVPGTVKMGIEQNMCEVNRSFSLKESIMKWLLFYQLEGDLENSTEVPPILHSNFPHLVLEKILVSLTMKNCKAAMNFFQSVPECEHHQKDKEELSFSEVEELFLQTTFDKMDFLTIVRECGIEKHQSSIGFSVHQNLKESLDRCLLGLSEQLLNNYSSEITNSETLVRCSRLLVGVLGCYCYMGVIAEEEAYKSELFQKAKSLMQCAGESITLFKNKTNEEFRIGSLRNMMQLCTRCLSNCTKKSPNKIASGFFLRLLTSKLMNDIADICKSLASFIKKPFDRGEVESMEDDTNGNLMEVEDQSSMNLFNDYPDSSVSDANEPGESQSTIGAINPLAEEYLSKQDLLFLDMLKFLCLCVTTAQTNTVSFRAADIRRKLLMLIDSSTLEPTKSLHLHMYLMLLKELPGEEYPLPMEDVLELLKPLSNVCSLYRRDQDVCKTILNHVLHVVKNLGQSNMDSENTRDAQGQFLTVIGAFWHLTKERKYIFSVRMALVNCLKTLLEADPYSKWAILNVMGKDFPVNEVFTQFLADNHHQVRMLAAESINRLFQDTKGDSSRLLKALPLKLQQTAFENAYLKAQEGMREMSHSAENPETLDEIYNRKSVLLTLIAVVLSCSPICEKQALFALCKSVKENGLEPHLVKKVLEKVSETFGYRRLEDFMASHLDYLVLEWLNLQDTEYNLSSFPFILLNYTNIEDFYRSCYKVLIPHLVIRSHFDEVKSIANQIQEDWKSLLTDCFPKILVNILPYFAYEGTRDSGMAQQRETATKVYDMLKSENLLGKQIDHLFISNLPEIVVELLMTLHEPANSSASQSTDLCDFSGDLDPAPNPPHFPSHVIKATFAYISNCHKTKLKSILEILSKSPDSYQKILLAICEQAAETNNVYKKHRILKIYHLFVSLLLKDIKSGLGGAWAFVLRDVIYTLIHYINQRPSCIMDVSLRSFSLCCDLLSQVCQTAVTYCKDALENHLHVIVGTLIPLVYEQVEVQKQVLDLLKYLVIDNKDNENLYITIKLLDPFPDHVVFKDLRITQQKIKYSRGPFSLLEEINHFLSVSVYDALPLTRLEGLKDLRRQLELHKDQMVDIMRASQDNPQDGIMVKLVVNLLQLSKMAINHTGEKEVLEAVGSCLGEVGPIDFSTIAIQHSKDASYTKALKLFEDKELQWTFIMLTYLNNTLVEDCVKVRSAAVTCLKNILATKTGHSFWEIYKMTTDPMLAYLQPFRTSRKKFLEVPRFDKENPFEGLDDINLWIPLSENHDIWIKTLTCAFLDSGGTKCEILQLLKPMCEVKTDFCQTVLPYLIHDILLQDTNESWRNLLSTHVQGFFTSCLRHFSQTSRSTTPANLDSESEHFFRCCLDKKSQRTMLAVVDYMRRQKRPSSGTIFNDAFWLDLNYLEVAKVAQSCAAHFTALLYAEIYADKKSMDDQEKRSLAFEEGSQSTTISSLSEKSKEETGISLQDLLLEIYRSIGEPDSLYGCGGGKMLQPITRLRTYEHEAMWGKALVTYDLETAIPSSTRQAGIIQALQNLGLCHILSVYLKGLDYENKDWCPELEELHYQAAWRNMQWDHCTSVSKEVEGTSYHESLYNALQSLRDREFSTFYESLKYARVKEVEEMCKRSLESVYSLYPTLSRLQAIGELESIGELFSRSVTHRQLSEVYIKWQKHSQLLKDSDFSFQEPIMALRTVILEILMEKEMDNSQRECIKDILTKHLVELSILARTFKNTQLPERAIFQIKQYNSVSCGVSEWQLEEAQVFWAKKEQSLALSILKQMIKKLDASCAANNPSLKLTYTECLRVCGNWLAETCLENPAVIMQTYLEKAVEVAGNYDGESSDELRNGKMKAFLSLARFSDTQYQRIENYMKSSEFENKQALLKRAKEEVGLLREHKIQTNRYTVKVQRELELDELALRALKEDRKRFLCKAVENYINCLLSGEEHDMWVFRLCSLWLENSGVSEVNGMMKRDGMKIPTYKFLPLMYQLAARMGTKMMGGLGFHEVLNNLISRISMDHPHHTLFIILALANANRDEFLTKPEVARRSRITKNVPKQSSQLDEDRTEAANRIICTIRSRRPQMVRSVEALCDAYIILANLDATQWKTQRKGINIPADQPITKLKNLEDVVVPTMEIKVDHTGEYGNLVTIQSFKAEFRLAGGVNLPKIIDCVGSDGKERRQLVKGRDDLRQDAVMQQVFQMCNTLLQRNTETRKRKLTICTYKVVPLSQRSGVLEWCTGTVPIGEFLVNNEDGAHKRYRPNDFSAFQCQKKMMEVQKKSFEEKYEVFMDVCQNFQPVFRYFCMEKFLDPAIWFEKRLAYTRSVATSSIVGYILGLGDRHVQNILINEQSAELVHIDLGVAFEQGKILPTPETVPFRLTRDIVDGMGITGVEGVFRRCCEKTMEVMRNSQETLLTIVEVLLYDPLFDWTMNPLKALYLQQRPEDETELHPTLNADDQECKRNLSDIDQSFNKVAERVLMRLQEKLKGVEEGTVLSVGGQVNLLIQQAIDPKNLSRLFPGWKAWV

Turning to `Nc1ncnc2c1ncn2[C@@H]1O[C@H](C(=O)N2CCN(CC(=O)Nc3cccc4c3CNC4=O)CC2)[C@@H](O)[C@H]1O` [EB-47], the PAR chain formation result in assay [1] is reported as “abolished”. Also, the “phosphorylation of p65 at S536” value in [2] was “detected”. Besides, in assay [3], the “PAR chain formation / PARP1 enzymatic activity” value is reported as “inhibition of PAR chain formation”. In addition, the “PAR chain formation and NF-κB binding activity” value in [4] was “abrogated PAR chain formation and NF-κB binding activity”.
Take `NC(=O)c1cccc(N)c1` [Example 3-AB]: in assay [5], the “NF-κB DNA binding activity” value is listed as “did not abolish”. In assay [1], the PAR chain formation result is “abolished”. In [6], the “PAR chain formation and NF-κB DNA binding activity” value is “inhibited PAR chain formation and NF-κB DNA binding activity”. Also, in assay [2], the “phosphorylation of p65 at S536” value was “decreased phosphorylation”. The “PAR chain formation / PARP1 enzymatic activity” value in assay [3] is reported as “inhibition of PAR chain formation”. In addition, the “PAR chain formation and NF-κB binding activity” value in assay [4] is “abrogated PAR chain formation and NF-κB binding activity”.
For `O=c1cc(-c2cccc3c2Sc2ccccc2S3)oc(N2CCOCC2)c1` [KU55933, reference compound], in [7], the “ATM auto-phosphorylation and phosphorylation of the ATM substrates p53 and KAP1” value was “inhibited”; the “phosphorylation state of p53bp1” value is on record as “inhibited”. Moreover, the “NFKBIA, TNFAIP3 and CXCL8 mRNA induction upon irradiation” value in assay [8] was “complete inhibition”.
As to `COc1ccc2c3ccnc4c5ccc(OC)c(OC)c5c(=O)n(c2c1)c34` [MW01C1, 6,7,11-trimethoxy-8H-benzo[c]indolo[3,2,1-ij][1,5]naphthyridin-8-one], the “p-p65/p65 ratio (inhibition of NF-κB activation following etoposide co-treatment)” value in assay [9] is reported as “highly potent derivative”.
Same read-out and setting: the entry for `COc1ccc2c(c1OC)c(=O)n1c3ccc(F)cc3c3ccnc2c31` [MW01C2, 12-fluoro-6,7-dimethoxy-8H-benzo[c]indolo[3,2,1-ij][1,5]naphthyridin-8-one] is “lowest p-p65/p65 ratios”.
On the same count and under the same terms, in the case of `Cc1ccc2c(c1)c1ccnc3c4ccccc4c(=O)n2c13` [MW01C3, 12-methyl-8H-benzo[c]indolo[3,2,1-ij][1,5]naphthyridin-8-one] it was “lowest p-p65/p65 ratios”.
As to `O=c1c2ccccc2c2nccc3c4cc(Cl)ccc4n1c32` [MW01C4, 12-chloro-8H-benzo[c]indolo[3,2,1-ij][1,5]naphthyridin-8-one], the “p-p65/p65 ratio (inhibition of NF-κB activation following etoposide co-treatment)” value in assay [9] is “lowest p-p65/p65 ratios”.
Turning to `O=C(c1cc(Cc2n[nH]c(=O)c3ccccc23)ccc1F)N1CCN(C(=O)C2CC2)CC1` [olaparib], the “p65 S536 phosphorylation in comparison to DMSO/etoposide co-treated controls” value in assay [10] (0.63 μM to 10.0 μM, 90 min after etoposide) is reported as “No significant decrease”. In [10] (etoposide co-treatment), the “signal intensity ratio of S536 phosphorylated p65 and total p65 (densitometry, three experiments)” value is reported as “did not influence”. Also, the “phosphorylation of p65 at S536” value in [2] is “decreased phosphorylation”. In assay [8], the “NFKBIA, TNFAIP3 and CXCL8 mRNA induction upon irradiation” value was “did not change”.

Source of the values: US11028084B2, “Selective inhibitors of gentotoxic steress-induced IKK/NF-κB pathways” (Max-Delbrück-Centrum für Molekulare Medizin in der …, priority 2016, dated 2021).
